target: EGFR (Homo sapiens, UniProt P00533); experiment: Biochemical EGFR assay (ELISA, A431 cell lysate); parameters: A431 cell lysate (Screening Lab, SUGEN, Inc.); host or cells: A431; conditions: read-out: bio EGFr IC50
How it was run: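 EGFR captured from A431 cell lysate onto anti-EGFR-coated plates, then incubated with test compound for 30 min at room temperature. Tyrosine phosphorylation with ATP/MnCl2 was stopped with EDTA after 5 min and detected by anti-phosphotyrosine ELISA with peroxidase/ABTS read-out.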

Chain of EGFR (P00533 25-1210): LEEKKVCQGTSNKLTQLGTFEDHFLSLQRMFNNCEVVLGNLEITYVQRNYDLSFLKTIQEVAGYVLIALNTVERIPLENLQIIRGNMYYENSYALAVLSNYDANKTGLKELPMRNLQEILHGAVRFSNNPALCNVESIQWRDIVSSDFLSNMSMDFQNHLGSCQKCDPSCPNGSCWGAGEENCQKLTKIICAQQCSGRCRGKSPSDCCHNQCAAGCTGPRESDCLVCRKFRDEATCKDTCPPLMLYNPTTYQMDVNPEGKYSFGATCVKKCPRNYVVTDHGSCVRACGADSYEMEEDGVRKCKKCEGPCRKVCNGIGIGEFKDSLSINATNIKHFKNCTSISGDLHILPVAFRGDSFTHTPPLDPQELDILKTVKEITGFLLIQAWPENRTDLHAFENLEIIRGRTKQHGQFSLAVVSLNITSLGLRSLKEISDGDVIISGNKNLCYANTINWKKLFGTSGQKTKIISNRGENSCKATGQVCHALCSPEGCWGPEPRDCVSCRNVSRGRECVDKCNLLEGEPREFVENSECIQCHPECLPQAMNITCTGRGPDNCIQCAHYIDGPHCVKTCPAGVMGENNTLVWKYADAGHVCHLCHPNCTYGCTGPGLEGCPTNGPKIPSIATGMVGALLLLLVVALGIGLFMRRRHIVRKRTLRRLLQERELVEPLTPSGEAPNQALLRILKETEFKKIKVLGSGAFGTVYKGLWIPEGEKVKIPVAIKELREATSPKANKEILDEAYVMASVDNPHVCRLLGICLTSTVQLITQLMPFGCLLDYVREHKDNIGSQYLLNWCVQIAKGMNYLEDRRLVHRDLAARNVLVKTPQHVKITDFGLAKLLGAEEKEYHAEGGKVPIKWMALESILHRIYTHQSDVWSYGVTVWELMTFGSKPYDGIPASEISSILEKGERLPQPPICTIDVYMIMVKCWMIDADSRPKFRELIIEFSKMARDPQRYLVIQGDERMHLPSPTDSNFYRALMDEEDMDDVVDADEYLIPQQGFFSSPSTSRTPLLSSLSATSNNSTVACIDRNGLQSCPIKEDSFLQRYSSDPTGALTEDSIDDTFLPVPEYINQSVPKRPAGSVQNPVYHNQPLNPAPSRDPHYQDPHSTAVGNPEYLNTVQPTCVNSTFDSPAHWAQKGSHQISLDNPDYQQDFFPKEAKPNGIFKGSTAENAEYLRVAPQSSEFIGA

| IC50 [µM] | Compound |
| --- | --- |
| > 100 | COc1ccc2c(c1)NC(=O)/C2=C/c1ccc(OC)c(-c2ccsc2)c1 [Example 64, 6-Methoxy-3-(4-methoxy-3-thiophen-3-ylbenzylidene)-1,3-dihydroindol-2-one] |
| > 100 | CCOC(=O)c1c(C)[nH]c(/C=C2\C(=O)Nc3cc(-c4ccc(F)cc4)ccc32)c1CCC(=O)O [Example 108, 4-(2-Carboxyethyl)-5-[6-(4-fluorophenyl)-2-oxo-1,2-dihydro-indol-3-ylidenemethyl]-2-methyl-1H-pyrrole-3-carboxylic acid ethyl ester] |
| > 100 | COc1c(C(C)C)cc(/C=C2/C(=O)Nc3cc(F)ccc32)cc1C(C)C [Example 22, 3-(3,5-Diisopropyl-4-methoxybenzylidene)-6-fluoro-1,3-dihydroindol-2-one] |
| > 100 | Cc1cccc2c1/C(=C/c1cc3ccccc3[nH]1)C(=O)N2 [Example 166, 3-(1H-indol-2-ylmethylene)-4-methyl-1,3-dihydro-indol-2-one] |
| > 100 | CC(=O)Nc1ccc2c(c1)NC(=O)/C2=C/c1ccc(OCCN2CCOCC2)c(C(C)(C)C)c1 [Example 55, N-{3-[3-tert-Butyl-4-(2-morpholin-4-ylethoxy)-benzylidene]-2-oxo-2,3-dihydro-1H-indol-6-yl}-acetamide] |
| > 100 | COc1ccc(/C=C2/C(=O)Nc3ccccc32)cc1-c1ccsc1 [Example 35, 3-(4-Methoxy-3-thiophen-3-ylbenzylidene)-1,3-dihydroindol-2-one] |
| > 100 | COc1cccc(-c2cc(OC)c(OC)cc2/C=C2/C(=O)Nc3ccc(Cl)cc32)c1 [Example 61, 5-Chloro-3-(4,5-3′-Trimethoxybiphenyl-2-ylmethylene)-1,3-dihydroindol-2-one] |
| > 100 | COc1ccc(/C=C2/C(=O)Nc3ccc(Br)cc32)cc1-c1ccccc1 [Example 13, 5-Bromo-3-(6-methoxybiphenyl-3-ylmethylene)-1,3-dihydroindol-2-one] |
| > 100 | O=C1Nc2ccc(F)cc2/C1=C\c1ccc2c(c1)CCO2 [Example 42, 3-(2,3-Dihydrobenzofuran-5-ylmethylene)-5-fluoro-1,3-dihydroindol-2-one] |
| 36.8 | COc1ccc(/C=C2/C(=O)Nc3ncccc32)cc1C1CCCC1 [Example 47, 3-(3-Cyclopentyl-4-methoxybenzylidene)-1,3-dihydropyrrolo[2,3-b]pyridin-2-one] |
| 7.9 | O=C1Nc2ncccc2/C1=C\c1ccc2c(c1)CCO2 [Example 73, 3-(2,3-Dihydrobenzofuran-5-ylmethylene)-1,3-dihydropyrrolo[2,3-b]pyridin-2-one] |
| > 100 | COc1cc(C)c(C=C2C(=O)Nc3ccc(Cl)cc32)cc1C(C)C [Example 9, 5-Chloro-3-(5-isopropyl-4-methoxy-2-methylbenzylidene)-1,3-dihydroindol-2-one] |
| > 100 | CCOc1cccc(-c2cc(C=C3C(=O)Nc4ccccc43)ccc2OC)c1 [Example 46, 3-(3′-Ethoxy-6-methoxybiphenyl-3-ylmethylene)-1,3-dihydroindol-2-one] |
| 10.1 | COc1c(C)cc(/C=C2/C(=O)Nc3ncccc32)cc1C [Example 56, 3-(4-Methoxy-3,5-dimethylbenzylidene)-1,3-dihydropyrrolo[2,3-b]pyridin-2-one] |
| > 100 | COc1c(C(C)C)cc(/C=C2/C(=O)Nc3cc(O)ccc32)cc1C(C)C [Example 4, 3-(3,5-Diisopropyl-4-methoxybenzylidene)-6-hydroxy-1,3-dihydroindol-2-one] |
| > 100 | Cc1cc(CCC(=O)O)c(/C=C2\C(=O)Nc3cc(-c4ccc(F)cc4)ccc32)[nH]1 [Example 107, 3-{2-[6-(4-Fluorophenyl)-2-oxo-1,2-dihydroindol-3-ylidenemethyl]-5-methyl-1H-pyrrol-3-yl}propionic acid] |
| > 100 | COc1c(C(C)C)cc(/C=C2\C(=O)Nc3cccc(C)c32)cc1C(C)C [Example 53, 3-(3,5-Diisopropyl-4-methoxybenzylidene)-4-methyl-1,3-dihydroindol-2-one] |
| > 100 | COc1ccc(/C=C2/C(=O)Nc3ccc(Cl)cc32)cc1-c1cccnc1 [Example 60] |
| > 100 | O=C1Nc2ccc(Cl)cc2/C1=C\c1ccc2c(c1)CCO2 [Example 14, 5-Chloro-3-(2,3-dihydro-benzofuran-5-ylmethylene)-1,3-dihydroindol-2-one] |
| > 100 | COc1ccc(C=C2C(=O)Nc3ccccc32)cc1-c1cccc(NC(C)=O)c1 [Example 29, N-[2′-Methoxy-5′-(2-oxo-1,2-dihydroindol-3-ylidenemethyl)-biphenyl-3-yl]-acetamide] |
| > 100 | CCc1ccc2c(c1)/C(=C\c1cc(C(C)C)c(OC)c(C(C)C)c1)C(=O)N2 [Example 28, 3-(3,5-Diisopropyl-4-methoxbenzylidene)-5-ethyl-1,3-dihydroindol-2-one] |
| 13.2 | COc1c(C(C)C)cc(/C=C2/C(=O)Nc3ncccc32)cc1C(C)C [Example 74, 3-(3,5-Diisopropyl-4-methoxybenzylidene)-1,3-dihydropyrrolo[2,3-b]pyridin-2-one] |

| IC50 [µM] | Compound |
| --- | --- |
| > 100 | CC(=O)Nc1ccc2c(c1)NC(=O)/C2=C/c1ccc(OCCN2CCOCC2)c(-c2cccs2)c1 [Example 40, N-{3-[4-(2-Morpholin-4-ylethoxy)-3-thiophen-2-ylbenzylidene]-2-oxo-2,3-dihydro-1H-indol-6-yl}-acetamide] |
| 11.8 | COc1ccc(/C=C2/C(=O)Nc3ncccc32)cc1C1CCCCC1 [Example 72, 3-(3-Cyclohexyl-4-methoxybenzylidene)-1,3-dihydropyrrolo[2,3-b]pyridin-2-one] |
| > 100 | COc1c(C)cc(/C=C2/C(=O)Nc3ccc(Cl)cc32)cc1C [Example 21, 5-Chloro-3-(4-methoxy-3,5-dimethylbenzylidene)-1,3-dihydroindol-2-one] |
| > 100 | COc1ccc2c(c1)/C(=C\c1cc(C(C)C)c(OC)c(C(C)C)c1)C(=O)N2 [Example 17, 3-(3,5-Diisopropyl-4-methoxybenzylidene)-5-methoxy-1,3-dihydroindol-2-one] |
| 29.6 | COc1ccc(/C=C2/C(=O)Nc3ncccc32)cc1-c1ccccc1 [Example 71, 3-(6-Methoxybiphenyl-3-ylmethylene)-1,3-dihydropyrrolo[2,3-b]pyridin-2-one] |
| > 100 | COc1cc(/C=C2/C(=O)Nc3ccccc32)c(-c2cccs2)cc1OC [Example 39, 3-(4,5-Dimethoxy-2-thiophen-2-ylbenzylidene)-1,3-dihydroindol-2-one] |
| > 100 | COc1ccc(/C=C2/C(=O)Nc3ccc(Cl)cc32)cc1C1CCCCC1 [Example 51, 5-Chloro-3-(3-cyclohexyl-4-methoxybenzylidene)-1,3-dihydroindol-2-one] |
| 22.6 | COc1ccc(/C=C2/C(=O)Nc3ncccc32)cc1C(C)C [Example 70, 3-(3-Isopropyl-4-methoxybenzylidene)-1,3-dihydropyrrolo[2,3-b]pyridine-2-one] |
| > 100 | Cc1cc(CCC(=O)O)c(/C=C2\C(=O)Nc3ccc(Cl)cc32)[nH]1 [Example 111, 3-[2-(5-Chloro-2-oxo-1,2-dihydroindol-3-ylidenemethyl)-5-methyl-1H-pyrrol-3-yl]propionic acid] |
| > 100 | COc1c(C(C)C)cc(/C=C2/C(=O)Nc3ccc(Br)cc32)cc1C(C)C [Example 54, 5-Bromo-3-(3,5-diisopropyl-4-methoxybenzylidene)-1,3-dihydroindol-2-one] |
| > 100 | COc1ccc(/C=C2/C(=O)Nc3ccc(F)cc32)cc1C(C)C [Example 44, 5-Fluoro-3-(3-isopropyl-4-methoxybenzylidene)-1,3-dihydroindol-2-one] |
| > 100 | COc1ccc(/C=C2/C(=O)Nc3ccccc32)cc1C1CCCCC1 [Example 12, 3-(3-Cyclohexyl-4-methoxybenzylidene)-1,3-dihydroindol-2-one] |
| > 100 | COc1ccc(/C=C2/C(=O)Nc3ccc(F)cc32)cc1C1CCCCC1 [Example 43, 3-(3-Cyclohexyl-4-methoxybenzylidene)-5-fluoro-1,3-dihydroindol-2-one] |
| > 100 | CC(C)c1cc(/C=C2/C(=O)Nc3ccc(Br)cc32)cc(C(C)C)c1OCCN1CCOCC1 [Example 57, 5-Bromo-3-[3,5-diisopropyl-4-(2-morpholin-4-ylethoxy)benzylidene]-1,3-dihydroindol-2-one] |
| > 100 | COc1ccc(/C=C2/C(=O)Nc3ccc(F)cc32)cc1C1CCCC1 [Example 11, 3-(3-Cyclopentyl-4-methoxybenzylidene)-5-fluoro-1,3-dihydroindol-2-one] |
| > 100 | COc1ccc(/C=C2/C(=O)Nc3ccccc32)cc1-c1ccccc1 [Example 65, 3-(6-Methoxybiphenyl-3-ylmethylene)-1,3-dihydroindol-2-one] |
| > 100 | CC(C)c1cc(/C=C2/C(=O)Nc3ccc(Cl)cc32)cc(C(C)C)c1OCCN1CCOCC1 [Example 24, 5-chloro-3-[3,5-diisopropyl-4-(2-morpholin-4-ylethoxy)-benzylidene]-1,3-dihydroindol-2-one] |
| > 100 | COc1ccc(/C=C2/C(=O)Nc3ccc(CCN4CCOCC4)cc32)cc1-c1ccsc1 [Example 26, 3-(4-Methoxy-3-thiophen-3-ylbenzylidene)-5-(2-morpholin-4-yl-ethyl)-1,3-dihydroindol-2-one] |
| > 100 | COc1ccc(/C=C2/C(=O)Nc3ccc(F)cc32)cc1-c1ccccc1 [Example 37, 5-Fluoro-3-(6-methoxybiphenyl-3-ylmethylene)-1,3-dihydroindol-2-one] |
| > 100 | COc1cc(/C=C2/C(=O)Nc3ccccc32)c(-c2ccc3ccccc3c2)cc1OC [Example 62, 3-(4,5-Dimethoxy-2-naphthalen-2-ylbenzylidene)-1,3-dihydroindol-2-one] |
| > 100 | CC(=O)Nc1ccc2c(c1)NC(=O)/C2=C\c1ccc2c(c1)CCC(C)(C)O2 [Example 33, N-[3-(2,2-Dimethylchroman-6-ylmethylene)-2-oxo-2,3-dihydro-1H-indol-6-yl]-acetamide] |
